According to patent US10342786B2, “P38 kinase inhibitors reduce DUX4 and downstream gene expression for the treatment of FSHD” (Fulcrum Therapeutics, Inc., priority 2017, dated 2019):

System: DUX4-fl mRNA
Experiment: DUX4 / DUX4-fl mRNA expression by qPCR in FSHD myotubes
Type: cell-based, human
Description: In a 6 well plate, 450 μL Buffer RLT Plus was added. Lysate was homogenized by transfer the lysate to a gDNA Eliminator spin column placed in a 2 mL collection tube (supplied), centrifuged for 30 s at ≥8000×g (≥10,000 rpm) and discarded column while saving the flow-through. Then 250 μL of Ethanol (35% final) was added to the flow-through, and mixed well by pipetting, not centrifuged. Then samples were transferred, including any precipitate that may have formed, to an RNeasy MinElute spin column placed in a 2 mL collection tube (supplied). Then centrifuged for 15 s at ≥8000×g. Flow-through was discarded or collected for Protein precipitation. 700 μL Buffer RW1 to the RNeasy MinElute spin column was added then centrifuge for 15 s at ≥8000×g. and discard the flow-through. DNAse treatment was performed by gently mixing 10 μL DNAseI with 70 μL of Buffer RDD and added directly to the column, incubated at room temperature for 20 min. Then, 700 μL Buffer RW1 (per manufactures specification) to the RNeasy MinElute spin column, centrifuged for 15 s at >8000×g. and the flow-through discarded. 500 μL Buffer RPE was added to the RNeasy MinElute spin column centrifuged for 15 s at ≥8000×g and discarded the flow-through. 500 μL of 80% ethanol was added to the RNeasy MinElute spin column, centrifuged for 2 min at ≥8000×g to wash the spin column membrane and the collection tube was discarded with the flow-through. The RNeasy MinElute spin column was placed in a new 2 mL collection tube (supplied) centrifuged at full speed for 5 min to dry the membrane and the collection tube was discarded with the flow through. RNeasy MinElute spin column was placed in a new 1.5 mL collection tube (supplied). 14 μL RNase-free water was added directly to the center of the spin column membrane, and centrifuged for 1 min at full speed to elute the RNA. You should end up with about 12 μL of eluted RNA.
cDNA preparation. […] 10 seconds then read plate on QuantStudio7 as per manufactures instruction (Thermo). […]

## Cn1c(=O)c(Oc2ccc(F)cc2F)cc2cnc(NC(CCO)CCO)nc21 [Pamapimod, 6-(2,4-difluorophenoxy)-2-((1,5-dihydroxypentan-3-yl)amino)-8-methylpyrido[2,3-d]pyrimidin-7(8H)-one]
10, 100, and 1000 nM, FSHD myotubes, compared to DMSO
  DUX4-fl mRNA levels normalized to POLR2A mRNA: dose-dependently reduced

## FTX-2: DUX4 sequence-directed antisense oligonucleotide purchased from Exiqon, CAGCGTCGGAAGGTGG (SEQ ID NO: 1) (listed as DNA, chemistry not given here)
1 μM ASO, FSHD myotubes vs DMSO
  DUX4 expression: reduced amounts
Different dilutions of the ASO, FSHD myotubes
  DUX4 expression: dose dependent reduction
